Assay results published in patent publication US7211566B2 (Universite De Sherbrooke, priority 2003, dated 2007).
Ends that are not written are not given here.

Key:
[1] = tested on: carboxypeptidases of the M type (CPM); details: cited from earlier work
[2] = tested on: carboxypeptidases of the N type (CPN); details: cited from earlier work
[3] = human plasma as a source of aminopeptidase M (AmM); details: up to 60 min
[4] = tested on: angiotensin converting enzyme (ACE); experiment: Purified ACE from rabbit lungs (Sigma, St. Louis, Mo.) dissolved in PBS (50 mM, pH 7.5, containing 300 mM NaCl and 10 μM ZnCl2); details: 37° C., up to 60 min
[5] = molecular target: T1, BKB1 receptor (Oryctolagus cuniculus, UniProt P48748); experiment: Isolated rabbit aorta (rbA) organ bath, antagonist potency pA2; format: cell-based; details: rabbit aorta without endothelium; mean ± SEM of 4–7 experiments
T1 construct: The rabbit aorta without endothelium (which contains only the BKB1 receptor); from tissue; host or cells: isolated rabbit aorta (rbA) without endothelium
T1 sequence (P48748 1-352): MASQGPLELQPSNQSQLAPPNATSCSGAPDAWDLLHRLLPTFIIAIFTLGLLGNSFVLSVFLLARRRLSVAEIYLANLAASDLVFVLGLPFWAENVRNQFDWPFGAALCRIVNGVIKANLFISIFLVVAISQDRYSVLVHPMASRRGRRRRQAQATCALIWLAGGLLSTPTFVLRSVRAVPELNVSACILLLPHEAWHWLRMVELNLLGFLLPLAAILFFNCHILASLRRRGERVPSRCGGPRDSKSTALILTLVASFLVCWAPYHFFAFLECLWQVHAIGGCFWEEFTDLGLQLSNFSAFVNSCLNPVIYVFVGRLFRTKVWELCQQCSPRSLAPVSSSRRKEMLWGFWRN
Protocol: (§1) Selected antagonists were tested for activities in three isolated organs: (1) the rabbit aorta (rbA), (2) the human umbilical vein (hUV) and (3) the rabbit jugular vein (rbJV).
(§2) All details regarding the procurements of human umbilical cords and rabbit vessels as well as, the procedures for preparing the isolated organs and the experimental protocols are described in these respective publications: rbA (Rioux et al. 1973, Can J Physiol Pharmacol 51, 114–121); hUV (Gobeil et al. 1996, Br J Pharmacol 118, 289–294), and rbJV (Gaudreau et al. 1981, Can J Physiol Pharmacol 59, 371–379).
The rabbit aorta without endothelium (which contains only the BKB1 receptor) was used to determine the antagonistic activities of each compound.
(§3) The rabbit jugular vein (a pure BKB2 receptor system) was used to exclude any action of the new compounds on the BKB2 receptor and thus establish their selectivity. All tissues were treated with captopril (1 μM) to prevent the degradation of the peptidic agonists.
(§4) Repeated applications of a single and double concentration of BK (on rbJV,) or of desArg^9BK (rbA and hUV) were made in the absence and in presence of the various peptides to evaluate their apparent affinities as antagonists, in terms of pA2 (-log10 of the molar concentration of antagonist that reduces the effect of a double concentration of agonist to that of a single one) (Schild 1947, Br J Pharmacol 2, 189–206).

[6] = molecular target: T2, BKB2 receptor (Oryctolagus cuniculus, UniProt Q28642); experiment: Isolated rabbit jugular vein (rbJV) organ bath, antagonist potency pA2; format: cell-based; details: BK as agonist
T2 construct: The rabbit jugular vein (a pure BKB2 receptor system); from tissue; host or cells: isolated rabbit jugular vein (rbJV)
T2 sequence (Q28642 1-367): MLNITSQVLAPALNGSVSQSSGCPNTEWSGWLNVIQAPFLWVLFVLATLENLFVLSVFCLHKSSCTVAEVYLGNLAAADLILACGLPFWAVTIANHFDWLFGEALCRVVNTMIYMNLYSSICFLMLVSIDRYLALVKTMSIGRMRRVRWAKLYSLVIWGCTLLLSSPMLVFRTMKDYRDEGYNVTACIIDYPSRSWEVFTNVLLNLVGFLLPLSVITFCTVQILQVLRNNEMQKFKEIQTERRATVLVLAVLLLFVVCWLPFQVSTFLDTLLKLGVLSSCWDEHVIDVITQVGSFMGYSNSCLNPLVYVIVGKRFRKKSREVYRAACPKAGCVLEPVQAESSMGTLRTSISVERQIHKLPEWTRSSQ
Protocol: as §1, §2, §3, §4

[7] = molecular target: T3, aminopeptidase M (AmM) (Homo sapiens, UniProt P15144); experiment: In vitro metabolic stability against human plasma AmM; format: in vitro ADME; details: male, human plasma as source of aminopeptidase M, pH 7.5, peptide 200 μM, 60 min incubation, mean ± SEM of 3, read-out: Peptide metabolism (%) Human plasma AmM
T3 construct: incubated for 60 min with 50 μl of human plasma; from tissue; host or cells: human plasma from heparinized blood of healthy male volunteers
T3 sequence (P15144 whole entry): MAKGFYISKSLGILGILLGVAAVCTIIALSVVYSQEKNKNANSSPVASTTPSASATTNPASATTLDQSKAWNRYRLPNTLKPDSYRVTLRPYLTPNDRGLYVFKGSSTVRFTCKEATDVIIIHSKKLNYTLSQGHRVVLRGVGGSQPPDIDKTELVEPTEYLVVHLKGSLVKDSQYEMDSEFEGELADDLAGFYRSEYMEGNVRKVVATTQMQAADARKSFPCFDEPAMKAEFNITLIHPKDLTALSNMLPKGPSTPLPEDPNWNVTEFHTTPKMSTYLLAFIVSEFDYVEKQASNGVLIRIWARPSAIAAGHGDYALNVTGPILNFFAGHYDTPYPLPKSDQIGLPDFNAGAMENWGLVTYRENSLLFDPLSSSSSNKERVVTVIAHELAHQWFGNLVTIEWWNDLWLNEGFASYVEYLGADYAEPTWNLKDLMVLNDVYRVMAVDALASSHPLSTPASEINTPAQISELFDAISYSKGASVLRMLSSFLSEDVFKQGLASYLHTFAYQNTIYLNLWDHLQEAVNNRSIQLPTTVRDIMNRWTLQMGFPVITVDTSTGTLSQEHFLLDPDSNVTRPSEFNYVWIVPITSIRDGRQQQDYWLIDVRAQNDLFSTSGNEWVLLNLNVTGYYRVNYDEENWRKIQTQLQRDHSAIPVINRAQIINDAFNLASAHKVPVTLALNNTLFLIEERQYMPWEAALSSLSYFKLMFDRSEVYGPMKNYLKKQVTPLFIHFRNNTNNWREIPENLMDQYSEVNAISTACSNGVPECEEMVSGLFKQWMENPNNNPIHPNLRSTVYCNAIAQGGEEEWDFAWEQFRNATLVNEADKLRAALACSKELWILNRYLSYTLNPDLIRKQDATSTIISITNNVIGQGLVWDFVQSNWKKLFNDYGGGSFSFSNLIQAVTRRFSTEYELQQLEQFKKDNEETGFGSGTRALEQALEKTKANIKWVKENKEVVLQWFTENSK
Protocol: (§5) These assays were performed using three enzyme preparations: purified angiotensin converting enzyme (ACE; from rabbit lung), human plasma as a, source of aminopeptidase M (AmM) and human platelets as a source of aminopeptidase P (AmP).
Human plasma AmM was prepared as previously described (Gobeil et al., 1999, Hypertension, 33, 823–829). Blood (5 ml) was withdrawn from healthy normotensive male Caucasian volunteers and put into heparinized tube (200 U). Blood samples were centrifuged at 1500 rpm for 15 min in a refrigerated tabletop centrifuge. The peptide antagonists (200 μM) were placed in a PBS buffer (50 mM, pH 7.5, containing 300 mM NaCl) and incubated for 60 min with 50 μl of human plasma (total volume of the medium, 375 μl). Immersing samples into boiling water and then cooling them on ice stopped the hydrolysis reaction. Control experiments have shown that ≈70% of the kininase activity that is present in the human plasma is abolished by amastatin (1 μM) and that the incubation of Lys-[Leu^8]desArg^9BK with this enzymatic preparation led to the production of [Leu^8]desArg^9BK as detected by electrospray mass spectrometry.

[8] = molecular target: T4, angiotensin converting enzyme (ACE) (Oryctolagus cuniculus, UniProt P12822); experiment: In vitro metabolic stability against purified rabbit lung ACE; format: in vitro ADME; details: purified angiotensin converting enzyme from rabbit lung, pH 7.5, peptide 200 μM, 60 min at 37° C., mean ± SEM of 3, read-out: Peptide metabolism (%) Rabbit lung ACE
T4 construct: In Vitro Biochemical Stability Assays Against Purified Native Enzymes; purchased Sigma, St. Louis, Mo; host or cells: rabbit lung
T4 sequence (P12822 34-1310): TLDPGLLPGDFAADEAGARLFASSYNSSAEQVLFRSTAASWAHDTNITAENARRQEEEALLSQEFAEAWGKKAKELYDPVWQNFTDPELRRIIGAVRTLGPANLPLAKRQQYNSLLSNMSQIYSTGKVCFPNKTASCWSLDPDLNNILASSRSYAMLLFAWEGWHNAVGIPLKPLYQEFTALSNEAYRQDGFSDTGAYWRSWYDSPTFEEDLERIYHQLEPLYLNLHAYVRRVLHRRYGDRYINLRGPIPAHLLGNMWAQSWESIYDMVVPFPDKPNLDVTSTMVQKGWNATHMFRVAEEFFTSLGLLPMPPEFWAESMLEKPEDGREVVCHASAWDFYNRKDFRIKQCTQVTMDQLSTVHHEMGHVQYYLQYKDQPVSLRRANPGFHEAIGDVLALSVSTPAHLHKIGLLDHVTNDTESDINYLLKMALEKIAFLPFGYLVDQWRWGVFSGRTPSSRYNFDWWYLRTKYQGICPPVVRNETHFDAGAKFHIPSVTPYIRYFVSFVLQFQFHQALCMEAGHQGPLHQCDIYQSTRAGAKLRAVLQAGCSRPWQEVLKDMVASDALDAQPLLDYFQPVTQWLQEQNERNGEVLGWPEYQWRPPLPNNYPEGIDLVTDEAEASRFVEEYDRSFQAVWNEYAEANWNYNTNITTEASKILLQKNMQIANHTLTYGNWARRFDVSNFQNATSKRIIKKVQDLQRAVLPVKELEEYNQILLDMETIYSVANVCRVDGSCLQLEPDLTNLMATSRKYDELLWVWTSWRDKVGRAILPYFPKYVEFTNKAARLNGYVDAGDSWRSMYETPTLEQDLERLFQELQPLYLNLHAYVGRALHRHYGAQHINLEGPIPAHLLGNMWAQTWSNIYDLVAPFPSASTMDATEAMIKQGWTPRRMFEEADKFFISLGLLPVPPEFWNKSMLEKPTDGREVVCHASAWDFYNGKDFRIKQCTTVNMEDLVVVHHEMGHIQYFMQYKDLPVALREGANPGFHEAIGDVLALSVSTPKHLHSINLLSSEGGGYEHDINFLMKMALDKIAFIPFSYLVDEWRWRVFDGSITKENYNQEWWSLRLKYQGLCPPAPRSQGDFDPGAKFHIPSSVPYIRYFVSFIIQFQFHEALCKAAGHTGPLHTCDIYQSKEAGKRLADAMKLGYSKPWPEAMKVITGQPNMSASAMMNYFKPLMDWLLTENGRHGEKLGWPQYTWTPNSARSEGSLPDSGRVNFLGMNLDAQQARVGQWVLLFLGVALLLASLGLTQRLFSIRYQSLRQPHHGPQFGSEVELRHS
Protocol: as §5
Purified ACE from rabbit lungs (Sigma, St. Louis, Mo.) was dissolved in PBS (50 mM, pH 7.5, containing 300 mM NaCl and 10 μM ZnCl2; the final concentration of ACE was 45 μg/ml). Each of the peptide antagonists (200 μM) was incubated for 60 min at 37° C. with ACE (8.5 μl) (total volume medium, 187.5 μl). The enzymatic reaction was then terminated by boiling.
The experimental protocol for the measurement of ACE activity has been described elsewhere (Drapeau et a). 1993, J Pharmacol Exp Ther 266, 192–198; Gobeil et al., 1996, supra).

[9] = molecular target: T5, aminopeptidase P (AmP) (Homo sapiens, UniProt Q9NQW7); experiment: In vitro metabolic stability against human platelets AmP; format: in vitro ADME; details: mean ± SEM of 3 experiments
T5 construct: from tissue; host or cells: human platelets, freeze-thawed and sonicated, 43 000 x g supernatant
T5 sequence (Q9NQW7 whole entry): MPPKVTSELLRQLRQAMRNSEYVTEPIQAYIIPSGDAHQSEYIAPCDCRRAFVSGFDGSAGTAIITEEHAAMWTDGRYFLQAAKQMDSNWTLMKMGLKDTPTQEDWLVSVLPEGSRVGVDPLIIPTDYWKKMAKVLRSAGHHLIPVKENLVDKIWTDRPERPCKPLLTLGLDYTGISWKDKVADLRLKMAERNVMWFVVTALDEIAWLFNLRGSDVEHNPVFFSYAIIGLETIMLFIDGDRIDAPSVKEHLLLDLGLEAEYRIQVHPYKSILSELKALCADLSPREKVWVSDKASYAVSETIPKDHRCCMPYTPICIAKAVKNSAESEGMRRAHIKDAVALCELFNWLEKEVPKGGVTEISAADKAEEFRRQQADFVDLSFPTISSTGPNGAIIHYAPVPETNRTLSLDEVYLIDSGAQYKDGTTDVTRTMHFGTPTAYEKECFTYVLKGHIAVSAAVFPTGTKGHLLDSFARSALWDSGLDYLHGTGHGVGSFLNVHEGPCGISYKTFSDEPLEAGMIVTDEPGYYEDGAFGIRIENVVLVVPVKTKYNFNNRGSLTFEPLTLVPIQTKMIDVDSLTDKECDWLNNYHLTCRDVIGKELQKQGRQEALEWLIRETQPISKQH
Protocol: as §5
Human platelet AmP was prepared as described by Maggiora et al. (1999, J Med Chem 42, 2394–2402). Human platelets (40 ml) were centrifuged at 250×g for 7 min at room temperature. The resulting supernatant was recentrifuged at 2790×g for 15 min at room temperature. Pellets were collected, resuspended in 40 ml of phosphate-buffered saline (PBS) containing 3.5% of sodium citrate, and then re-centrifuged at 2790×g for 15 min at room temperature. This washing step was repeated. Pellets were resuspended in 4 ml of PBS-sodium citrate, snap-frozen in liquid nitrogen, thawed at 37° C., sonicated briefly, and then centrifuged at 43 000×g for 2 h at 4° C. (Sorvall RC 5B, ss-34 rotor). The resulting supernatant was used for enzyme assays as described in Neugebauer et al. (Neugebauer et al. 2002, supra).

[10] = molecular target: T6, BKB1 receptor (Homo sapiens, UniProt P46663); experiment: Isolated human umbilical vein (hUV) organ bath, antagonist potency pA2; format: cell-based; design: the hUV that contains BKB1 and BKB2 receptors; from tissue; host or cells: isolated human umbilical vein (hUV)
T6 sequence (P46663 1-353): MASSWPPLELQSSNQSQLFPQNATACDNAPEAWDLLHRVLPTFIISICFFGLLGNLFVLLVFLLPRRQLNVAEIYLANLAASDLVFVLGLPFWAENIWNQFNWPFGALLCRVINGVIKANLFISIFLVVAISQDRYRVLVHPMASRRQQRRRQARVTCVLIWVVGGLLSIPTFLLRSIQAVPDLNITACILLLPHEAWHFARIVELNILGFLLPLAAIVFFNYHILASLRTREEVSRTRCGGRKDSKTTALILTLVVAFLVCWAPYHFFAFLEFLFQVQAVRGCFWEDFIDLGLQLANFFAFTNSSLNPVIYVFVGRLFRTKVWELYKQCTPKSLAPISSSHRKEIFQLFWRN
Protocol: as §1, §2, §3, §4

For RPPGFSPFR, the cleaved bond [1] is given as “Phe8-Arg9” and the cleaved bond [2] is given as “Phe8-Arg9”.

In the case of Lys-[Leu^8] desArg^9BK, the fragment found [3] is reported as “[Leu^8]desArg^9BK” and the cleaved bond [4] is reported as “Phe5-Ser6”.

For “Ac-Lys[Oic^2,(α-Me)Phe^5,D-βNal^7,Ile^8]desArg^9BK”, the not cleaved [3] was “Peptide metabolism 0 % (60 min)” and the not cleaved [4] was “Peptide metabolism 0 % (60 min)”.

In the case of “Ac-Orn[Oic^2,Oic^3(α-Me)Phe^5,D-βNal^7,Ile^8]desArg^9BK”, the “Antagonist potencies (pA2) BKB1-R rbA” value [5] is reported as 8.30 ± 0.08 and the “Antagonist potencies (pA2) BKB2-R rbJV” value [6] is reported as less than 6.00.

With `CC(C)C[C@H](NC(=O)[C@@H]1CCCN1C(=O)[C@H](CO)NC(=O)[C@H](Cc1ccccc1)NC(=O)CNC(=O)[C@@H]1CCCN1C(=O)[C@@H]1CCCN1C(=O)[C@H](CCCN=C(N)N)NC(=O)[C@@H](N)CCCCN)C(=O)O` [Lys-[Leu^8]desArg^9-BK, Lys-[Leu^8] desArg^9BK, reference compound] the metabolised at 1 h, 200 µM [7] was 100%, the metabolised at 1 h, 200 µM [8] was 93 ± 3% and the “Peptide metabolism (%) Human platelets AmP” value [9] was 99 ± 1%. The “affinity higher than that of [Leu^8]desArg^9BK” value ([10]; BKB1 receptor antagonist affinity, effect of N-terminal Lys) was “at least 1.5 log units”.

In the case of “Ac-Lys-[D-βNal^7, Ile^8] desArg^9BK [Ac-Lys-[D-βNal^7, Ile^8]desArg^9-BK, reference compound]”, the “Antagonist potencies (pA2) BKB1-R rbA” value [5] is reported as 8.40 ± 0.12, the “Antagonist potencies (pA2) BKB2-R rbJV” value [6] is reported as less than 6.00 and the “Antagonist potencies (pA2) BKB1-R hUV” value ([10]; human umbilical vein treated with HOE 140, mean ± SEM of 4–7 experiments) is reported as 8.49 ± 0.10.
